Activity calls are given as the source filed them.
Tests used:
[1] = molecular target: Peroxisome proliferator-activated receptor gamma/Nuclear receptor coactivator 1 (Homo sapiens, UniProt P37231); assay: (§1) TR-FRET dose response biochemical High Throughput Screening assay for agonists of the steroid receptor coactivator 1 (SRC-1) recruitment by the peroxisome proliferator-activated receptor gamma (PPAR gamma): non-selective agonists. [Related pubchem assays (depositor defined):AID1300, AID1808, AID504735, AID631]; type: protein assay
Chain of Peroxisome proliferator-activated receptor gamma/Nuclear receptor coactivator 1 (P37231 whole entry): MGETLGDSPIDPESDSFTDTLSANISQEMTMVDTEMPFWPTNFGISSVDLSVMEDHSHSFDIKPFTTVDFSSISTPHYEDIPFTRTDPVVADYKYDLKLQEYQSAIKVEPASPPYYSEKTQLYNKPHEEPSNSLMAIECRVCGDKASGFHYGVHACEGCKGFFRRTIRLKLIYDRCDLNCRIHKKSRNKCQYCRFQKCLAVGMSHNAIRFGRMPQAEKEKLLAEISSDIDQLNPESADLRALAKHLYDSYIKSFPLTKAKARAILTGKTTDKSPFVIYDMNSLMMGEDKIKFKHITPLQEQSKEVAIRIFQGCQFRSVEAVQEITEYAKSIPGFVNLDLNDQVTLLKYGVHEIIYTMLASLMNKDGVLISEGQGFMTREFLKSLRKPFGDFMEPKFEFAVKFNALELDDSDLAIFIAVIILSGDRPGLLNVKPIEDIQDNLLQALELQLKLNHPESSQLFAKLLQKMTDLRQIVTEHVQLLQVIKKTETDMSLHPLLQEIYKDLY
Chain of Peroxisome proliferator-activated receptor gamma/Nuclear receptor coactivator 1 (Q15788 whole entry, further chain): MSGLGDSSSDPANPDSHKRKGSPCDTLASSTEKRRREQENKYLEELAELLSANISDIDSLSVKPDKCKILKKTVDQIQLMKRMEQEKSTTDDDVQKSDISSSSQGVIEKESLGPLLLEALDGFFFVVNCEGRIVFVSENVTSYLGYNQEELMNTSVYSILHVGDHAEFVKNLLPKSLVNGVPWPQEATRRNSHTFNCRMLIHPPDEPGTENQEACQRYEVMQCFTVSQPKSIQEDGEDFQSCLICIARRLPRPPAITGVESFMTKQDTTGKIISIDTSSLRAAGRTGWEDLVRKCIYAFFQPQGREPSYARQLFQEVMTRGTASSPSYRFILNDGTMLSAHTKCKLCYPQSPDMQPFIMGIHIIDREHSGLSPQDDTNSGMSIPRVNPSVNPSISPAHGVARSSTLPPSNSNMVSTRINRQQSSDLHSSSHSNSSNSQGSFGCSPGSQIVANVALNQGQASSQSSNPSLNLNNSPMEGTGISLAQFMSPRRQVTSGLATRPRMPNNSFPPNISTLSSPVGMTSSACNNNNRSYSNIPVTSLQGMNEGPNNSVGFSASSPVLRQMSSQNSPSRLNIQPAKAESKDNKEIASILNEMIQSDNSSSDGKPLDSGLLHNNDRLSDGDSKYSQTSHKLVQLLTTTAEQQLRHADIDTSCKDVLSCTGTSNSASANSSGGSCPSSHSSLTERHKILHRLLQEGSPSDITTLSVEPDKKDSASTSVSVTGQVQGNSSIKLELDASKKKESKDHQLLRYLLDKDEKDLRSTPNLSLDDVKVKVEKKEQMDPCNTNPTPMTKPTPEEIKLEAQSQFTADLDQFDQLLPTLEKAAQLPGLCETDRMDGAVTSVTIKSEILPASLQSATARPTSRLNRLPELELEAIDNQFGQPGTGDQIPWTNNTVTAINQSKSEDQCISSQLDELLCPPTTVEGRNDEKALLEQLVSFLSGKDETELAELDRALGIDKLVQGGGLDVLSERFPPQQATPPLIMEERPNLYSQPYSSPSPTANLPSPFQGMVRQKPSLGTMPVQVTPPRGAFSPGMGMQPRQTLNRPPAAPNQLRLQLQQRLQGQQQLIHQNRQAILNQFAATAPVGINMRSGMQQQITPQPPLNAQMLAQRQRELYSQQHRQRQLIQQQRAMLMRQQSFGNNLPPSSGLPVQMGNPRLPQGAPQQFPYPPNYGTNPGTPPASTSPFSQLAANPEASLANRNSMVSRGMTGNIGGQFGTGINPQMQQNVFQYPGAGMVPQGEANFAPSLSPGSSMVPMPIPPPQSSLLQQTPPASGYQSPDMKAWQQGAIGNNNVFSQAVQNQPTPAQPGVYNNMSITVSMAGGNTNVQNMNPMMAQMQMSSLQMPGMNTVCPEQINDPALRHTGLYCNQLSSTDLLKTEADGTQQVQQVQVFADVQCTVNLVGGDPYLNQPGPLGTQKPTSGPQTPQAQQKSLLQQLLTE

[2] = molecular target: T1, Heat shock factor protein 1 (Mus musculus, UniProt P38532); assay: inhibition of MG132-induced HSE-luciferase signal, confirmation, cell-based, NIH3T3, luminescence, dose retest (AID 2382); type: functional;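 note: NIH3T3 fibroblasts with HSF1-driven luciferase reporter stressed by proteasome inhibitor MG132; luminescence from HSF1-driven luciferase expression after 8 hours of MG132 stress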
T1 sequence (P38532 whole entry): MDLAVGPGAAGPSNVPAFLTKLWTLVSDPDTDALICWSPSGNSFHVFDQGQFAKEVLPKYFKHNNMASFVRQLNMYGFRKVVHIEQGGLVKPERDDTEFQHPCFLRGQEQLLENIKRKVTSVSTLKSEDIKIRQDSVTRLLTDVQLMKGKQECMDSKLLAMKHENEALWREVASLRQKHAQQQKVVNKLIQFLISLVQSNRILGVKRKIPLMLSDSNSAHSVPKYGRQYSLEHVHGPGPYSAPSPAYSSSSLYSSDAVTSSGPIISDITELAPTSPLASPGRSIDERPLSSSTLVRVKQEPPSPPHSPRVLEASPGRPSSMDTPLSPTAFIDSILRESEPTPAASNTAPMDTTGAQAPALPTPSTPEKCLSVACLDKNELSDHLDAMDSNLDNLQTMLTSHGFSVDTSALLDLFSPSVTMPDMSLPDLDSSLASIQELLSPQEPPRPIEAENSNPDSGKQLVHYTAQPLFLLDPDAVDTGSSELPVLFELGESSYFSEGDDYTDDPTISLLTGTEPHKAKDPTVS

[3] = molecular target: Peroxisome proliferator-activated receptor gamma/Nuclear receptor coactivator 3 (Homo sapiens, UniProt P37231); assay: as §1, with “3 (SRC-3)” for “1 (SRC-1)”, “assays: 1301 (Confirmation screen.), 1048 (Primary screen.)]” for “assays (depositor defined):AID1300, AID1808, AID504735, AID631]”; type: functional
Chain of Peroxisome proliferator-activated receptor gamma/Nuclear receptor coactivator 3 (P37231 whole entry): as the sequence (P37231 whole entry) above
Chain of Peroxisome proliferator-activated receptor gamma/Nuclear receptor coactivator 3 (Q9Y6Q9 whole entry, further chain): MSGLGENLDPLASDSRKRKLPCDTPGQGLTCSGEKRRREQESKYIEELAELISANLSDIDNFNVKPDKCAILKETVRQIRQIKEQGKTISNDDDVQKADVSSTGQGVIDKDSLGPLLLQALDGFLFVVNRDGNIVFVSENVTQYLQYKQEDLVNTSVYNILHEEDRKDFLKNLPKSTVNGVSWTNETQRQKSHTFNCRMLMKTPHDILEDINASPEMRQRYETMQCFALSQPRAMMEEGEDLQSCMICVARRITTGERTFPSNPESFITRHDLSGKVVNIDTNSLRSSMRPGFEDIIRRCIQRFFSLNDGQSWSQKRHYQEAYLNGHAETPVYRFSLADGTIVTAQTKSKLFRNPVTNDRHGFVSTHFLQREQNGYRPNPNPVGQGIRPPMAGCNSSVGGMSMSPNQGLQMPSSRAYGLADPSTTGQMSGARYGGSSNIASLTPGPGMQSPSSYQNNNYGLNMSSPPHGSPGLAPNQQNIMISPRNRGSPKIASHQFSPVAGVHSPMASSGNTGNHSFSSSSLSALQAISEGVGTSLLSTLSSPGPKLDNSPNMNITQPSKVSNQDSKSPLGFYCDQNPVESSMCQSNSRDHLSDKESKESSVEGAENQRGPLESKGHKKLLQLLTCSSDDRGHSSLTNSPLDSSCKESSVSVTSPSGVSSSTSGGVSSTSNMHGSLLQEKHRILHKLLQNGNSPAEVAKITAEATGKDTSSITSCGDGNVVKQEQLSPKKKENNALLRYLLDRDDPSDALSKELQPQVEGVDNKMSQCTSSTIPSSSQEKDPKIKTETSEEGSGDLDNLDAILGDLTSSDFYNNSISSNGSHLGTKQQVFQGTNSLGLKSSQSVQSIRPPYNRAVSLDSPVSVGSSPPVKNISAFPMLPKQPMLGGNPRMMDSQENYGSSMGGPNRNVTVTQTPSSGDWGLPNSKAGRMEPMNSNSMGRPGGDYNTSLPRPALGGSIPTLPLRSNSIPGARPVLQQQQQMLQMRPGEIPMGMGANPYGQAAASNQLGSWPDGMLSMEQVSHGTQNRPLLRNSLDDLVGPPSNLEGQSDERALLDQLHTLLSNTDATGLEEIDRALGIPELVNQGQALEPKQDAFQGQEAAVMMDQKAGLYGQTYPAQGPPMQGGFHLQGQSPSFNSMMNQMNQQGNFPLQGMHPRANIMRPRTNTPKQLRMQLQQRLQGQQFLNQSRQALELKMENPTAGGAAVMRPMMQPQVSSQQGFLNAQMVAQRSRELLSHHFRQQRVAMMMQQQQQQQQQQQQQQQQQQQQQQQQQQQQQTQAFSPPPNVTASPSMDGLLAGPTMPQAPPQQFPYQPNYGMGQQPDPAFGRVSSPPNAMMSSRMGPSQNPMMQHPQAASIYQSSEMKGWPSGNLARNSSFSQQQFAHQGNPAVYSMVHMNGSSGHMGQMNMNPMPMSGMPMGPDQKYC

[4] = molecular target: Peroxisome proliferator-activated receptor gamma/Nuclear receptor coactivator 2 (Homo sapiens, UniProt P37231); assay: TR-FRET dose response biochemical High Throughput Screening assay for agonists of the steroid receptor coactivator 2 (SRC-2) recruitment by the peroxisome proliferator-activated receptor gamma (PPAR gamma): non-selective agonists. [Related pubchem assays: 1297, 1032 ]; type: functional
[5] = test system: HT-1080; assay: cytotoxicity in HT1080 fibrosarcoma cells, cell-based, fluorescence readout (AID 620); type: functional; conditions: Homo sapiens
[6] = molecular target: T2, Estrogen receptor (Homo sapiens, UniProt P03372);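 note: potency for inhibiting coactivator peptide recruitment to the receptor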
T2 sequence (P03372 whole entry): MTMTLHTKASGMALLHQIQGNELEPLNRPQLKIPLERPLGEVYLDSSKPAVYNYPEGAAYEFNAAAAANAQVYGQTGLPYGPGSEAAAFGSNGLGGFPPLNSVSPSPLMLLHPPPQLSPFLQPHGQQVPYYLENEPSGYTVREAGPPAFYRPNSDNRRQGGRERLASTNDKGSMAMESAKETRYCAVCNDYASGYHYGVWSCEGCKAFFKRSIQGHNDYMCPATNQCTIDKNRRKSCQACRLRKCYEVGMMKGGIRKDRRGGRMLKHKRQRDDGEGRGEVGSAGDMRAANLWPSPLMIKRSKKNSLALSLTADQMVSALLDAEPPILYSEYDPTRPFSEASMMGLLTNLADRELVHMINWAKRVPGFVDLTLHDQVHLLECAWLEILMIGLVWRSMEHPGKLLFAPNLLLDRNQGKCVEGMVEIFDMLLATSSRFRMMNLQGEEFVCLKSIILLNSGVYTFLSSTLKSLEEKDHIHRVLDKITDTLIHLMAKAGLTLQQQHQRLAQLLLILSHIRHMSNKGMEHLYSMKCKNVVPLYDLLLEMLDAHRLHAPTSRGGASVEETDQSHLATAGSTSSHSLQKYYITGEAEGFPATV

[7] = molecular target: Luciferin 4-monooxygenase (Photinus pyralis, UniProt P08659); assay: Counter Screen for Luciferase-based Assay Positives. [Related pubchem assays: 620, 618, 411 ]
Chain of Luciferin 4-monooxygenase (P08659 whole entry): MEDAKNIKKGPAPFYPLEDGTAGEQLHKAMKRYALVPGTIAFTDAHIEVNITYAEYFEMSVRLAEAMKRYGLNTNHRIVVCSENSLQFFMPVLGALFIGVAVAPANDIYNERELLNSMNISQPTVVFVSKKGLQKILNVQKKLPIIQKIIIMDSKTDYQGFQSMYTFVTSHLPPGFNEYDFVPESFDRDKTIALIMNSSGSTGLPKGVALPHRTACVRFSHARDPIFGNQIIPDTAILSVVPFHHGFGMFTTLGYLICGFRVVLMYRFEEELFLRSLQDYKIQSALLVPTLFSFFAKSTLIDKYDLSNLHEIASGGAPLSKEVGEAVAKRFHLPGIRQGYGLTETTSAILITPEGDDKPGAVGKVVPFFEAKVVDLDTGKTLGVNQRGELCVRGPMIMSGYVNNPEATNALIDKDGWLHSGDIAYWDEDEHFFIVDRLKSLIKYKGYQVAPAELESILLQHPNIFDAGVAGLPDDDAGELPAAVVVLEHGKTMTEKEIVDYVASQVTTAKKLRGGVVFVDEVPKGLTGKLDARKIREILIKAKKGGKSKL

[8] = molecular target: T3, Bcl-2-like protein 10 (Homo sapiens, UniProt Q9HD36); assay: displacers of TR3 peptide from Bcl-B, primary screen, selectivity assay for Bfl-1 inhibitor project, biochemical, fluorescence polarization, FITC-TR3 peptide (AID 748);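 note: fluorescence polarization from a fluorescein-labelled TR3 peptide binding purified Bcl-B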
T3 sequence (Q9HD36 whole entry): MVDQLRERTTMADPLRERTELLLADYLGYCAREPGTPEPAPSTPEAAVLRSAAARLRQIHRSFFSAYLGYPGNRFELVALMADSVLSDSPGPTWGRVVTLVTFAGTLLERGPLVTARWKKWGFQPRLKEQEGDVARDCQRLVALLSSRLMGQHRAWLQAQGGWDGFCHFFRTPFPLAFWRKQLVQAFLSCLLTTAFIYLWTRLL

[9] = molecular target: T4, Estrogen receptor beta (Homo sapiens, UniProt Q92731); assay: ERβ–SRC-3 coactivator interaction inhibitors, confirmation, orthogonal assay, biochemical, ELISA, streptavidin-HRP readout (AID 1060)
T4 sequence (Q92731 whole entry): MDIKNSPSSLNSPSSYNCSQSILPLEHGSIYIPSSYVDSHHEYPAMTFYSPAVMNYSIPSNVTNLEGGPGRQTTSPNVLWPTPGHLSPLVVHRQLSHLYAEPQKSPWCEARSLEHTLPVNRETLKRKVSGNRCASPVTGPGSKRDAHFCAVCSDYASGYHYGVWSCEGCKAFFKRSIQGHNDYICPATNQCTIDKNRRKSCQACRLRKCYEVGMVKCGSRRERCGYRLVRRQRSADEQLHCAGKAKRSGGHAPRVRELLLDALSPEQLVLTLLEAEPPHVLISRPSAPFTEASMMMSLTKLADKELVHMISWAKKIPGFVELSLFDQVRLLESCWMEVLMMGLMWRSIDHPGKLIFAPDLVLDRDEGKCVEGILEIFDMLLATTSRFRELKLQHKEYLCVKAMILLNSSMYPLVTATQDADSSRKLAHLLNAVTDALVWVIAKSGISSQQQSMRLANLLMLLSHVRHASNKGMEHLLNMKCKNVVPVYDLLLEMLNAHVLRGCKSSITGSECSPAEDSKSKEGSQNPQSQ

[10] = molecular target: T4, Estrogen receptor beta
[11] = test system: Escherichia coli; assay: microbe, parasite or virus in culture
[12] = molecular target: T5, Corticotropin-releasing factor receptor 2/Corticotropin-releasing factor-binding protein (Homo sapiens, UniProt P24387+Q13324); assay: activators of CRF receptor 2 with binding protein – uHTS hits, confirmation (AID 602473); type: functional; conditions: read-out: EC50_Mean
T5 sequence (Q13324 whole entry): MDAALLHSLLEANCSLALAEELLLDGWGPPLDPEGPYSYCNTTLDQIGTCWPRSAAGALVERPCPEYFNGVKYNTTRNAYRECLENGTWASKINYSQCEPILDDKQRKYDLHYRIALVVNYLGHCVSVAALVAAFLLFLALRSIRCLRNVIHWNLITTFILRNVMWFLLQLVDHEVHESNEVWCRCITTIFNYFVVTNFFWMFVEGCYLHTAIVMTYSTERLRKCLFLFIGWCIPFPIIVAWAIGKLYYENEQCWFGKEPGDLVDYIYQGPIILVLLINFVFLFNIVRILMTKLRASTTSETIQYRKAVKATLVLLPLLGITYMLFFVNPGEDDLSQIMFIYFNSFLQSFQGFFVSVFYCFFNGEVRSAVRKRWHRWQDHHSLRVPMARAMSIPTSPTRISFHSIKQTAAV
T5 sequence (P24387 whole entry): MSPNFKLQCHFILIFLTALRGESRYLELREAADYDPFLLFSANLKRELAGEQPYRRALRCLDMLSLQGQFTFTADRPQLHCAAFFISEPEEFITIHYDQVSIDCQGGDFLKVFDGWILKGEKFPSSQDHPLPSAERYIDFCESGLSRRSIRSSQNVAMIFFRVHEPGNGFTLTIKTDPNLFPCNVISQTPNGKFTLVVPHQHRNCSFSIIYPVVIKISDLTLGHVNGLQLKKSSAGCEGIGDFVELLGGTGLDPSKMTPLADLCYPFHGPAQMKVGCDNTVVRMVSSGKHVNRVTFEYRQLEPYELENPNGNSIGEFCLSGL

[13] = molecular target: T5, Corticotropin-releasing factor receptor 2/Corticotropin-releasing factor-binding protein; assay: Dose Response confirmation of uHTS hits for small molecule antagonists of the CRF-binding protein and CRF-R2 receptor complex.; type: functional; conditions: read-out: IC50_Mean
[14] = CRF-BP/CRF-R2 complex antagonists, dose response, cell-based, uHTS hits, 384-well (AID 651639); type: functional, Homo sapiens; conditions: read-out: IC50_Mean
[15] = cytotoxicity toward NIH3T3 fibroblasts, dose response, counter-screen, cell-based, ATP luminescence, mouse fibroblasts (AID 2010); type: functional;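 note: cells exposed to compound for about 90 hours before reading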
[16] = inhibitors of intracellular T. cruzi replication, confirmation, NIH3T3 host cells, beta-gal luminescence (AID 2044); type: functional, cell-based;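 note: intracellular parasites grown in NIH/3T3 mouse fibroblasts as host cells; luminescent beta-galactosidase reporter signal from transgenic T. cruzi replicating inside host cells; inhibitors lower the luminescence signal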
[17] = cytotoxicity in MIN6 insulinoma cells, dose response, cytotoxicity control, cell-based, mouse insulinoma (AID 2122); type: functional;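 note: confirmatory high-throughput counterscreen run to flag cytotoxic compounds; mouse MIN-6 beta cells carrying an insulin promoter eGFP reporter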
[18] = molecular target: T6, Apoptotic protease-activating factor 1 (Homo sapiens, UniProt O14727); type: functional
T6 sequence (O14727 whole entry): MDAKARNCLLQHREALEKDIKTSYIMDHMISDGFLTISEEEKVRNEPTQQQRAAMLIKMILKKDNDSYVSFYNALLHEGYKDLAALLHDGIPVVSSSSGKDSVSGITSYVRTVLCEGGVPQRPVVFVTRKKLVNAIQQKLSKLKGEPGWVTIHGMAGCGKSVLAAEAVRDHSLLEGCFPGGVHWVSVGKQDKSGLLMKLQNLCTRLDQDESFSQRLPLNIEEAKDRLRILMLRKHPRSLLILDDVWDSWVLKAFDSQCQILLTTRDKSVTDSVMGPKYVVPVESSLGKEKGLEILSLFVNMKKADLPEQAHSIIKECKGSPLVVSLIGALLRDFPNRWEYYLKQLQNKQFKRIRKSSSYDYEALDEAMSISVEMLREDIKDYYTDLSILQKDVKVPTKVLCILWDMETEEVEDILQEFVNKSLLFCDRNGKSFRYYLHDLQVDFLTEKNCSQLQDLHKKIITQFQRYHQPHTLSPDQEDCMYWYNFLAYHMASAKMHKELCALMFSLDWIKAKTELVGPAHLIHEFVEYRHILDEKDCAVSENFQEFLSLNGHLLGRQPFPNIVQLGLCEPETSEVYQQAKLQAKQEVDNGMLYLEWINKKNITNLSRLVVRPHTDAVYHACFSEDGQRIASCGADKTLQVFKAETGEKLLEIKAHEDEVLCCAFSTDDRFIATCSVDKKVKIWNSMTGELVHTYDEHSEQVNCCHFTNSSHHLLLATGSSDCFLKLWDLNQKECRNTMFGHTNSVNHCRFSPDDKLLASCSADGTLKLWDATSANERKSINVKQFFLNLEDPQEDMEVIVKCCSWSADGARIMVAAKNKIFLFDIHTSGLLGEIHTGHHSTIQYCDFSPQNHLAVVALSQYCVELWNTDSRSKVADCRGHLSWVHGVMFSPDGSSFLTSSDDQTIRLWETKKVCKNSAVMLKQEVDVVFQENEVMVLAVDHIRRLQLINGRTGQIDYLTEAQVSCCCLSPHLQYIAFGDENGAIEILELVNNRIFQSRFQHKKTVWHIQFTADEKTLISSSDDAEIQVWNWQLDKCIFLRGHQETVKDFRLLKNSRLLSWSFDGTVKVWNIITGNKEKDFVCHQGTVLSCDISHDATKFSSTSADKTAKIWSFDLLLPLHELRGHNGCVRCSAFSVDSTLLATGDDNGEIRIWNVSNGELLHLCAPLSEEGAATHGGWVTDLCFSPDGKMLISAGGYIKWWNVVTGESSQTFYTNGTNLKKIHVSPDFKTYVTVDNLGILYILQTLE

[19] = molecular target: T7, Ubiquitin-conjugating enzyme E2 N (Homo sapiens, UniProt P61088); type: functional
T7 sequence (P61088 whole entry): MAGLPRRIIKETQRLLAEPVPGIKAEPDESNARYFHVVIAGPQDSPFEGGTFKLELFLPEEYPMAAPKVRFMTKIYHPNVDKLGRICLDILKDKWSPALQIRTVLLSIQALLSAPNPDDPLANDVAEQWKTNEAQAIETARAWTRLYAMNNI

[20] = Luminescence Cell-Based Dose Retest to Confirm Inhibitors of Cancer Stem Cells. [Related pubchem assays (depositor defined):AID2717, AID2721]; type: functional; conditions: Homo sapiens
[21] = molecular target: Neurotensin receptor type 1 (Homo sapiens, UniProt P30989); type: functional;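 note: Image-based confirmatory dose-response assay measuring agonist activity at NTR1; NTR1-expressing U2OS osteosarcoma cells imaged for beta-arrestin GFP spot formation; agonist potency where compounds increase beta-arrestin recruitment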
[22] = insulin promoter down-regulators in MIN6 cells, imaging, high-content screening, mouse beta cells (AID 1628); type: functional
[23] = molecular target: T1, Heat shock factor protein 1; assay: HSF1 potentiators in luciferase reporter cells, confirmation, cell-based, NIH3T3, luminescence, dose retest (AID 435004); type: functional;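 note: stress induced by proteasome inhibitor MG132 added 30 min after compound; luciferase reporter driven by HSF1 response element in NIH3T3 cells; actives raise luminescence as potentiators of the MG132 stress response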
[24] = molecular target: T7, Ubiquitin-conjugating enzyme E2 N; type: functional; remark: listed apart in the source
[25] = molecular target: T8, Bcl-2-related protein A1 (Mus musculus, UniProt Q07440); type: functional;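 note: confirmatory dose–response counterscreen on Bfl-1, used to check hits from a UBC13 polyubiquitin inhibitor campaign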
T8 sequence (Q07440 whole entry): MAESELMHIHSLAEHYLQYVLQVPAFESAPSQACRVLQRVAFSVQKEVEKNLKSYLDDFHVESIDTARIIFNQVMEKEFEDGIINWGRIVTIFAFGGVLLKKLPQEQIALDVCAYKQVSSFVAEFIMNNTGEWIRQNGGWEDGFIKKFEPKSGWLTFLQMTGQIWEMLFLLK

With Cn1c(S)nnc1-c1sc2cc(C(F)(F)F)cnc2c1-c1cccnc1 the EC50 [1] was 4.86 µM (active), the EC50 [2] was > 195 µM (not active) and the EC50 [3] was 20.2 µM (not active). The EC50 [4] was 7.93 µM (active).

For COc1ccc(C2CC(c3ccc(Br)cc3)=NN2C(S)=Nc2ccccc2)cc1 (stereo not drawn), the EC50 [1] was 31.8 µM (inactive), the EC50 [3] was > 79.4 µM (not active) and the EC50 [4] was 30.2 µM (not active).

With CCc1ccc(NC(=O)c2noc3c2CCC3)cc1 the EC50 [5] was > 50 µM (not active), the IC50 [6] was 7.94 µM (active) and the EC50 [7] was 1.4 µM (active). For the same molecule, the IC50 [8] was 21.7 µM (active), the IC50 [9] was < 0.023 µM (not active) and the IC50 [10] was 5.5 µM (active).

In the case of C=CCn1c(SCC(=O)OC)nc2sc3c(c2c1=O)CCN(C)C3, the IC50 [8] is reported as 71 µM (inactive).

For N#Cc1cc(C(=O)c2cc(Br)ccc2O)cn(Cc2ccccc2)c1=O, the EC50 [1] was > 79.4 µM (inactive), the EC50 [3] was > 79.4 µM (not active) and the EC50 [4] was > 79.4 µM (not active).

With O=C(NC(Cc1ccccc1)c1nc2ccccc2[nH]1)c1ccc(Cl)c([N+](=O)[O-])c1 (stereo not drawn) the AC50 [11] was 25 µM (active), the EC50 [12] was > 53 µM (inactive) and the IC50 [13] was 11.6 µM (active). The IC50 [14] was 4.96 µM (active).

For COC(C(=O)Nc1ccnn1C1CCN(Cc2ccc(C)o2)CC1)c1ccccc1 (stereo not drawn), the AC50 [11] was 74.5 µM (active).

For CCCCCCOc1ccc(/C(C)=N/NC2=NCCN2)cc1[N+](=O)[O-], the EC50 [15] was > 30 µM (not active), the EC50 [16] was 2.15 µM (active) and the IC50 [17] was 2.11 µM (active). For the same molecule, the IC50 [18] was 70.5 µM (active), the IC50 [19] was 12.1 µM (active) and the AC50 [20] was 4.9 µM (active). For the same molecule, the EC50 [21] was 18.9 µM (active), the IC50 [22] was 2.34 µM (active) and the EC50 [23] was > 260 µM (inactive). For the same molecule, the IC50 [24] was 12.6 µM (active) and the IC50 [25] was > 20 µM (inactive).
